Where a name gives a salt, the structure may show the parent alone.
Target: T1, human CGT (ceramide galactosyltransferase), CHO/CGT lysate (Homo sapiens, UniProt Q16880)
T1 construct: Full-length human CGT cDNA was cloned into the BamH1/Xho1 site of pcDNA3.1 (+); expressed in transfected cells; host or cells: Chinese hamster ovary (CHO) cells; lysate prepared with M-PER
T1 sequence (Q16880 21-541): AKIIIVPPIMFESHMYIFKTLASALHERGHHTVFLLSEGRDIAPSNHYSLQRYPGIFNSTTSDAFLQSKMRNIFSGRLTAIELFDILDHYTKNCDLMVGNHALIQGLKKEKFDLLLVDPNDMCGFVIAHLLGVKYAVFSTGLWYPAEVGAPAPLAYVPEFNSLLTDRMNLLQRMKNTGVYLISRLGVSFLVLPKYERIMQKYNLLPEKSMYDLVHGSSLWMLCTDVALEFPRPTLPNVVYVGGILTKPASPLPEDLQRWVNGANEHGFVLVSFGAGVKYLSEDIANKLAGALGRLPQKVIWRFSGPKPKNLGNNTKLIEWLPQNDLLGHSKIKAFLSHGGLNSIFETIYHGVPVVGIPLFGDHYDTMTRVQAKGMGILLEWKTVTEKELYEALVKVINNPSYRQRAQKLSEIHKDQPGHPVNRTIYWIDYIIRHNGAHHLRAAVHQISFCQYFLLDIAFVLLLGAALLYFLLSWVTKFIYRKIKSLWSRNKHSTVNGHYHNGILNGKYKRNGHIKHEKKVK
Test: CGT enzyme assay, RapidFire/MS/MS readout with 0.01% Tween added (Table 1 ranges with two asterisks **)
Type: biochemical
Conditions: CGT enzymatic assay; range with two asterisks (**): RapidFire/MS/MS method with 0.01% Tween added
In short: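 Lysate (4 μg) of CHO cells transfected with full-length human CGT incubated 1 h at 37 °C with compound (0.001–50 μM) in pH 7.2 HEPES buffer with 10 μM C6-NBD-dihydro-ceramide, 17.5 μM UDP-galactose, Mg2+/Mn2+, CHAPS, BSA, 0.5% DMSO; ** set also contained 0.01% Tween 80. Product quantified by RapidFire/MS/MS, normalized to internal standard; IC50 from sigmoidal variable-slope fits.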

IC50 | SMILES
30 to 100 µM | NC1CCN(C(=O)[C@H](N(CC(F)(F)F)S(=O)(=O)c2ccc3cc(OC4CCCC4)ccc3c2)C(F)(F)c2ccc(Br)cc2)CC1 [Compound 187-2, (S)-N-(3-(4-aminopiperidin-1-yl)-1-(4-bromophenyl)-1,1-difluoro-3-oxopropan-2-yl)-6-(cyclopentyloxy)-N-(2,2,2-trifluoroethyl)naphthalene-2-sulfonamide]
< 1 µM | O=C([C@@H](NS(=O)(=O)c1ccc2cc(OC3CCCC3)ccc2c1)C(F)(F)c1ccc(-c2ccc(Cl)cc2)cc1)N1CCC12CNC2 [Compound 191-1, (R)-N-(1-(4′-chloro-[1,1′-biphenyl]-4-yl)-1,1-difluoro-3-oxo-3-(1,6-diazaspiro[3.3]heptan-1-yl)propan-2-yl)-6-(cyclopentyloxy)naphthalene-2-sulfonamide]
< 1 µM | N[C@@H]1CCN(C(=O)[C@@H](NS(=O)(=O)c2ccc3cc(OC4CCCC4)ccc3c2)C(F)(F)c2ccc(-c3ccc(Cl)cc3)cc2)C1 [Compound 149-1, N—((R)-3-((R)-3-aminopyrrolidin-1-yl)-1-(4′-chloro-[1,1′-biphenyl]-4-yl)-1,1-difluoro-3-oxopropan-2-yl)-6-(cyclopentyloxy)naphthalene-2-sulfonamide trifluoroacetate]
1 to 10 µM | CCOc1cc(-c2ccc(C(F)(F)[C@@H](NS(=O)(=O)c3ccc4cc(OC5CCCC5)ccc4c3)C(=O)N3CCC(N)CC3)cc2)ccc1Cl [Compound 154-2, (S)—N-(3-(4-aminopiperidin-1-yl)-1-(4′-chloro-3′-ethoxy-[1,1′-biphenyl]-4-yl)-1,1-difluoro-3-oxopropan-2-yl)-6-(cyclopentyloxy)naphthalene-2-sulfonamide trifluoroacetate]

More lines, now with the values behind:

SMILES | IC50
NC1CC2CCC(C1)N2C(=O)[C@@H](NC(=O)C(=O)c1ccc2cc(OC3CCCC3)ccc2c1)C(F)(F)c1ccc2cc(Br)ccc2c1 (stereo partly drawn) [Compound 160-1, N-((2R)-3-(3-amino-8-azabicyclo[3.2.1]octan-8-yl)-1-(6-bromonaphthalen-2-yl)-1,1-difluoro-3-oxopropan-2-yl)-2-(6-(cyclopentyloxy)naphthalen-2-yl)-2-oxoacetamide trifluoroacetate] | 10 to 30 µM
N[C@@H]1CC2CCC1N2C(=O)[C@@H](NS(=O)(=O)c1ccc2cc(OC3CCCC3)ccc2c1)C(F)(F)c1ccc(-c2ccc(Cl)cc2)cc1 (stereo partly shown) [Compound 180-4] | 1 to 10 µM
NC1CC2CCC(C1)N2C(=O)[C@@H](NC(=O)[C@H](O)c1ccc(OCC2CCCCC2)cc1)C(F)(F)c1ccc(-c2ccc(Cl)cc2)cc1 (stereo partly drawn) [Compound 152-1, (2R)—N-((2R)-3-(3-amino-8-azabicyclo[3.2.1]octan-8-yl)-1-(4′-chloro-[1,1′-biphenyl]-4-yl)-1,1-difluoro-3-oxopropan-2-yl)-2-(4-(cyclohexylmethoxy)phenyl)-2-hydroxyacetamide trifluoroacetate] | 1 to 10 µM
NC1CCN(C(=O)[C@@H](NS(=O)(=O)c2ccc3cc(OC4CCCC4)ccc3c2)C(F)(F)c2ccc(Cl)c(OC3CC3)c2)CC1 [Compound 168-1, (R)—N-(3-(4-aminopiperidin-1-yl)-1-(4-chloro-3-cyclopropoxyphenyl)-1,1-difluoro-3-oxopropan-2-yl)-6-(cyclopentyloxy)naphthalene-2-sulfonamide trifluoroacetate] | 1 to 10 µM
NC1CC2CCC(C1)N2C(=O)[C@H](NS(=O)(=O)c1ccc2cc(OC3CC3)ccc2c1)C(F)(F)c1ccc(Br)cc1 (stereo partly drawn) [Compound 177-2, N-((2S)-3-(3-amino-8-azabicyclo[3.2.1]octan-8-yl)-1-(4-bromophenyl)-1,1-difluoro-3-oxopropan-2-yl)-6-cyclopropoxynaphthalene-2-sulfonamide trifluoroacetate] | 10 to 30 µM

Same assay, conditions: CGT enzyme assay, RapidFire/MS/MS method with 0.01% Tween added (range with two asterisks **)

SMILES | IC50
COc1cc(C(F)(F)[C@@H](NS(=O)(=O)c2ccc(OCC3CCCCC3)cc2)C(=O)N2C3CCC2CC(N)C3)ccc1-c1ccc(Cl)cc1 (stereo partly drawn) [Compound 142-2, N-((2S)-3-(3-amino-8-azabicyclo[3.2.1]octan-8-yl)-1-(4′-chloro-2-methoxy-[1,1′-biphenyl]-4-yl)-1,1-difluoro-3-oxopropan-2-yl)-4-(cyclohexylmethoxy)benzenesulfonamide trifluoroacetate] | 1 to 10 µM
